Laboratory results from a melting point compilation (Tetko et al.).

SMILES | melting point
OCc1cc(Cl)c2nccn2c1 | 169 to 171 °C
Cc1c(N)cccc1C#N | 90 to 92 °C
CC(C)n1c(S)nnc1N(C)C | 127 to 129 °C
COc1ccc(-c2nnc(S)o2)cc1 | 202 to 204 °C
c1cnc2c(c1)CCN2 | 79 to 81 °C
N=c1[nH]cc(S(=O)(=O)O)cc1[N+](=O)[O-] | 317 to 319 °C
Brc1ccc(CN2CCNCC2)s1 | 50 to 52 °C
Cc1cc(N)n(C)c(=O)c1 | 192 to 194 °C
CS(=O)(=O)c1ccsc1N | 90 to 92 °C
Cc1nnc(-c2ccc(Br)c(F)c2)o1 | 138 to 140 °C
Nc1ccc(C(=O)NC2CC2)c(Cl)c1 | 158 to 160 °C
O=C(O)c1cc(F)c(F)cc1I | 127 to 129 °C
CC(C)(C)OC(=O)N1CCC(I)CC1 | 44 to 46 °C
COc1ccc(C=O)cc1OC(F)F | 34 to 38 °C
CN1CCN(C(=O)CO)CC1 | 56 to 58 °C
O=C(NCc1ccco1)OCC(F)(F)F | 35 to 37 °C
NC(CCN1CCOCC1)=NO | 159 to 161 °C
NCCCN1C(=O)C2C3C=CC(C3)C2C1=O (configuration not stated) | 66 to 68 °C
NC1CCCCC1CO (configuration not stated) | 132 to 135 °C
Cc1cc(SC(C)(C)C)ccc1N | 69 to 71 °C
O=C1C(Br)CCN1c1ccc(F)c(Cl)c1 (configuration not stated) | 99 to 101 °C

SMILES | melting point
O=C(Nc1nccs1)OCC(F)(F)F | 167 to 169 °C
O=C1COc2cc(NC(=O)OCC(F)(F)F)c(Cl)cc2N1 | 227 to 229 °C
N#Cc1cc(Cl)ccc1OCC(F)(F)F | 66 to 68 °C
O=C(O)c1cc(Cl)cc(Cl)c1I | 173 to 175 °C
O=C(O)CN1CSCC1=O | 171 to 173 °C
COc1cc(CC#N)ccc1SC(F)F | 41 to 43 °C
c1ncn(C2CCNCC2)n1 | 97 to 99 °C
Nc1c(Cl)ncnc1N1CCCC1 | 103 to 105 °C
CC(C)OC(=O)NNC(=O)CCl | 100 to 102 °C
CC(Cl)C(=O)Nc1cccc(S(=O)(=O)N2CCCCC2)c1 (configuration not stated) | 163 to 165 °C
CC(C)(C)OC(=O)NC(C)(C)C(C)(C)C(=O)O | 125 to 127 °C
Nc1ncc(Cc2ccc(Cl)c(Cl)c2)s1 | 83 to 85 °C
Cc1cc(NS(C)(=O)=O)ccc1Br | 102 to 104 °C
Clc1cn[nH]c1 | 65 to 67 °C
O=C(O)c1cc(I)c(F)cc1F | 163 to 165 °C
COc1ccc(N)cc1NC(=O)C1CCCCC1 | 147 to 149 °C
C1C2CC3CC1CC(C2)C31CO1 (configuration not stated) | 180 to 182 °C
N#CCCn1cc(C(N)=O)cn1 | 179 to 181 °C
FC(F)(F)c1ccc2sc(S)nc2c1 | 221 to 223 °C
CC(=O)Nc1ccc2c(c1)CN(C(=O)OC(C)(C)C)CC2 | 110 to 112 °C
N#CCS(N)(=O)=O | 100 to 102 °C

SMILES | melting point
CN(C)c1ccc(C2NCC(CCl)O2)cc1 (configuration not stated) | 104 to 106 °C
CC1CCC(NS(=O)(=O)CC(=O)O)CC1 (configuration not stated) | 116 to 118 °C
Cc1ocnc1C(=O)O | 127 to 129 °C
CCC(C)(C)NS(=O)(=O)c1ccc(Cl)nc1 | 86 to 88 °C
NC(=O)C1CCCN(C(=O)c2cc(Cl)ccc2N)C1 (configuration not stated) | 229 to 231 °C
CC(=O)NC(C)(C)C(=O)O | 190 to 192 °C
NC(=O)C1CCC(C(F)(F)F)NC1 (configuration not stated) | 127 to 129 °C
Clc1ccc(-c2n[nH]cc2Br)cc1 | 140 to 142 °C
CC1(O)CCNC1 (configuration not stated) | 37 to 39 °C
COc1ccc(NC(=O)C=CC(=O)O)cc1OC | 119 to 121 °C
CC(=O)c1cc([N+](=O)[O-])c(Cl)s1 | 74 to 76 °C
CCOc1cc(C(=O)O)c(N)cc1OC | 185 to 187 °C
CC(C)(C)OC(=O)Nc1ccc(C(F)(F)F)cc1C(=O)O | 190 to 192 °C
COc1cc(N)cc(OC)c1Br | 149 to 151 °C
Nc1c(Oc2ccc(Cl)cc2)ccc2ncccc12 | 124 to 126 °C
O=C1CCc2c(Cl)cc(Br)cc21 | 124 to 126 °C
N#CC1(C(=O)O)CCOCC1 | 162 to 164 °C
COc1cc(C(N)=S)ccn1 | 117 to 119 °C
Cc1cc(Br)cc2c(O)c(C(=O)O)cnc12 | 299 to 301 °C
CCc1sc(C(=O)O)cc1Br | 155 to 157 °C
Cc1csc(CC(N)=NO)n1 | 126 to 128 °C

Second part, the compound after the results:

melting point | SMILES
210 to 212 °C | CCCNc1c(N)n(Cc2ccccc2)c(=O)[nH]c1=O
248 to 250 °C | O=C(O)Cn1cc2ccccc2n1
249 to 251 °C | O=c1[nH]c(CCl)nc2ccc(Cl)cc12
185 to 187 °C | Cn1nc(SCC(=O)O)c(=O)n(C)c1=O
127 to 129 °C | CCOc1ccc(Cl)c(C(=O)O)n1
77 to 79 °C | CSc1cnn(-c2ccccc2)c1N
187 to 189 °C | O=C(O)c1cc(Cl)nc2ccccc12
142 to 144 °C | NCc1cccc(CS(N)(=O)=O)c1
41 to 43 °C | Nc1ccc(Oc2cccc(Cl)c2)cc1
115 to 117 °C | O=C(O)COc1cc(Cl)cc(Cl)c1
239 to 241 °C | COC(=O)c1ccc(-c2csc(N)n2)cc1
137 to 139 °C | CC(C)(C)NS(=O)(=O)c1cccc(N)c1
118 to 120 °C | Nc1cccc(-n2ccnn2)c1
117 to 119 °C | CCOC(=O)c1cnn2cccnc12
157 to 160 °C | COc1cccc(C(=O)O)c1F
92 to 94 °C | Cc1ccn(-c2cc(CO)ccn2)n1
218 to 220 °C | NS(=O)(=O)c1ccc(F)cc1C(=O)O
74 to 76 °C | O=C(O)CCSCc1ccccn1
148 to 150 °C | CC(C)(C)OC(=O)NCCNS(=O)(=O)c1cccc(N)c1
119 to 121 °C | O=C(O)CCc1nnnn1-c1ccccc1
88 to 90 °C | COc1ccc(S(=O)(=O)N(C)c2ccc(O)cc2)cc1

melting point | SMILES
238 to 240 °C | CC1=C(C(=O)Nc2ccccc2)C2(CCCCC2)C(C#N)=C(S)N1
91 to 93 °C | O=C(O)CCOc1ccc(Br)cc1F
122 to 124 °C | COC(=O)Nc1ccc(Br)cc1
140 to 144 °C | O=C(O)C1CC(=O)N(Cc2ccccc2)C1 (configuration not stated)
127 to 129 °C | CC(=O)c1ccc(N2CCC(O)CC2)cc1
49 to 51 °C | CCOC(=O)c1ccc(S(=O)(=O)Cl)cc1
128 to 130 °C | NNC(=O)C1Cc2ccccc2CN1Cc1ccccc1 (configuration not stated)
100 to 102 °C | COC(=O)c1sc(-c2cccc(Cl)c2)cc1N
104 to 106 °C | CCc1ccc(C(C)=CC(=O)O)cc1
189 to 191 °C | O=C(O)c1ccc(O)c(S(=O)(=O)Cl)c1
129 to 131 °C | O=C(O)Cc1csc(-c2ccc(F)cc2)n1
159 to 161 °C | NC(=O)NCc1ccc(N)cc1
173 to 175 °C | CN1C(=O)c2ccc(C(=O)O)cc2C1=O
106 to 108 °C | O=C(O)c1ccccc1S(=O)(=O)N1CCCCC1
154 to 156 °C | CCOc1ccccc1S(N)(=O)=O
114 to 116 °C | O=C(Nc1cccc(CO)c1)c1ccccc1
49 to 51 °C | ClCc1csc(COc2ccccc2)n1
120 to 122 °C | NC(=O)NCc1ccco1
124 to 126 °C | O=S1(=O)CCNC(c2ccccc2)C1 (configuration not stated)
53 to 55 °C | [N-]=[N+]=NC(C(=O)NC1CC1)c1ccc(F)cc1 (configuration not stated)
184 to 186 °C | O=C(O)c1ccc(O)c2ccccc12

melting point | SMILES
104 to 106 °C | O=Cc1ccc(-c2cccnc2)o1
113 to 115 °C | CC1(c2c(F)cccc2F)CC1C(=O)O (configuration not stated)
49 to 51 °C | O=C(O)CCn1ccc2ccccc21
150 to 152 °C | CCN(CC)S(=O)(=O)c1ccc(CCC(=O)O)cc1
198 to 202 °C | CCOc1ccc(C(=O)O)cc1OC
158 to 160 °C | COc1ccc(-c2cnc(CCC(=O)O)o2)cc1
103 to 105 °C | O=C(O)CCCSc1nc2ccccc2s1
167 to 169 °C | Cc1[nH]ccc1C(=O)O
197 to 199 °C | O=C(CCl)Nc1cccc(C(=O)Nc2cccc(C(F)(F)F)c2)c1
119 to 121 °C | O=C(O)C1CC(c2ccc(Cl)cc2)C1 (configuration not stated)
169 to 171 °C | O=C(O)c1ccc(F)c(S(=O)(=O)Cc2ncon2)c1
218 to 220 °C | O=C(O)CN1C(=O)c2ccccc2S1(=O)=O
138 to 140 °C | CC(=Cc1ccc(OCc2ccccc2)c(OCc2ccccc2)c1)C(=O)O
74 to 76 °C | Nc1cc(-c2ccccc2Br)no1
106 to 108 °C | Sc1ccc(-c2ccccc2)cc1
134 to 136 °C | Nc1nc2c(ccc3ccccc32)s1
132 to 134 °C | CC(O)c1c(Cl)nc2ccccn12 (configuration not stated)
69 to 71 °C | Nc1cc(Br)ccc1-n1cccn1
158 to 160 °C | O=C(CC(=O)Nc1ccccc1F)Nc1ccccc1F
145 to 147 °C | O=C(O)c1cccnc1SCC1CCCCC1
219 to 221 °C | NC(=O)CCn1c(S)nnc1-c1cccs1

melting point | SMILES
240 to 242 °C | O=c1ccc(-n2cncn2)n[nH]1
168 to 170 °C | O=C(c1ccc(O)cc1)N1CCCC1
258 to 260 °C | Cc1[nH]c(=O)c(C(=O)O)cc1-c1ccccc1
182 to 184 °C | CC(C)(C)NS(=O)(=O)c1cc(C(=O)O)ccc1F
167 to 169 °C | COc1ccccc1NC(=O)Nc1cc(N)ccc1OC
134 to 136 °C | Nc1cnccc1-n1ccnc1
131 to 134 °C | COc1cccc(NC(=O)COc2ccc(C(=O)O)cc2)c1
128 to 130 °C | COc1cc(NC(C)=O)ccc1N
144 to 146 °C | CC(C)n1ncc2ccc(N)cc21
295 to 297 °C | Cc1ccc(-c2nn(-c3ccccc3)cc2/C=C(\C#N)C(=O)O)cc1
228 to 230 °C | COc1nc(O)c2ccccc2n1
115 to 117 °C | CCc1cccc2c(CC#N)c[nH]c12
319 to 321 °C | O=c1c2ccccc2[nH]c2ccc(O)cc12
69 to 71 °C | O=C1CCCN1c1cccc(Br)c1
235 to 237 °C | Nc1nncc(-c2ccccc2)n1
148 to 150 °C | COCCCNc1c(N)n(Cc2ccccc2)c(=O)[nH]c1=O
113 to 115 °C | COC(=O)C(=O)CC(=O)c1cccnc1
229 to 231 °C | NNC(=O)c1c[nH]c2ccccc12
270 to 273 °C | Cc1ccc(-c2ccsc2C(=O)NN)cc1
249 to 251 °C | Cc1ccc(N2C(=O)CCC(C(=O)O)C2c2cccs2)cc1 (configuration not stated)
158 to 160 °C | Cc1ccc(C(=O)O)cc1OCc1csc(Br)c1
